Laboratory results as given in US10160726B2, “Quinolone derivatives as antibacterials” (priority 2014, dated 2018).
Converted amounts (≈) assume the structure as drawn. Structures can show the parent of a compound that is named as a salt. Where two headings read alike, the source gives them in different places.

Key:
[1] = test system: S. aureus NB01006-AVR005 (gyrA S84L, grlA S80F, grlB E471K); assay: microbe, parasite or virus in culture; assay type: cell-based; conditions: Staphylococcus aureus, 20 h, read-out: Antibacterial activity (MIC) NB01006-AVR005
[2] = molecular target: E. coli DNA gyrase (GyrA-B) (Escherichia coli, UniProt P0AES4); assay: Supercoiling assay of E. coli gyrase; assay type: biochemical
E. coli DNA gyrase (GyrA-B), sequence (P0AES4 whole entry): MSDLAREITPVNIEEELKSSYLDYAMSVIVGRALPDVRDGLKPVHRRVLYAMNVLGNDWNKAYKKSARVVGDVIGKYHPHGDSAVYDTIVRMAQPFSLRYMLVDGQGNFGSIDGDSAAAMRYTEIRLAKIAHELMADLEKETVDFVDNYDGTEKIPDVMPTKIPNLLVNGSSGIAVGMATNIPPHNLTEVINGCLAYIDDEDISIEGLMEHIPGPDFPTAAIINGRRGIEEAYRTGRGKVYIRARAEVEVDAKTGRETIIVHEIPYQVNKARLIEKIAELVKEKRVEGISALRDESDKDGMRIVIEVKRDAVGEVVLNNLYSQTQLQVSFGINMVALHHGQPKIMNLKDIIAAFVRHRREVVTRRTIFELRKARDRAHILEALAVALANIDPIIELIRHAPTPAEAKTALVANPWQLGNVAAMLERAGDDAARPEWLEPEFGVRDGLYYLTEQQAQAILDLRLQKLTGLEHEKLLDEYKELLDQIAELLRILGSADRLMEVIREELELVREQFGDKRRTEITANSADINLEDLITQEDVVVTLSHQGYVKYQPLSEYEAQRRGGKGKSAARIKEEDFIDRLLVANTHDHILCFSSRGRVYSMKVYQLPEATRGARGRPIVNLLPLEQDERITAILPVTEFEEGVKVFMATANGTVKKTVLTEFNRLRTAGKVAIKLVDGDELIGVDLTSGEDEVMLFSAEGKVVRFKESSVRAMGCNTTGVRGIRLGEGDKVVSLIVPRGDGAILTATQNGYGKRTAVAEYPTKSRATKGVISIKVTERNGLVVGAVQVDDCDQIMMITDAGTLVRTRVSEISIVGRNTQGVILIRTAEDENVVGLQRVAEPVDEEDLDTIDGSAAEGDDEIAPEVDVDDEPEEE
Description: Method 1: Supercoiling Assay of E. Coli Gyrase
Enzymatic activity of E. coli DNA gyrase reconstituted from its purified subunits was assessed by monitoring the introduction of supercoils into the relaxed plasmid pHOT-1 (TopoGEN, TG2035-3). To form the functional gyrase A2B2 heterotetrameric enzyme, equal molar concentrations of the GyrA and GyrB subunits were combined at high protein concentration (500 nM) and incubated on ice for 1 hour prior to assay start in reaction buffer without ATP or the pHOT-1 plasmid. The reaction mixture (25 μl) contained 10 nM enzyme, 10 ng/μl pHOT-1, 1 mM ATP, 35 mM Tris-HCl pH 7.5, 24 mM KCl, 4 mM MgCl2, 2 mM DTT, 1.8 mM spermidine, 6.5% glycerol, and 100 μg/ml bovine serum albumin. The reaction was carried out at 37° C. for 90 minutes and terminated by the addition of 2.5 μl of 10× stop solution (0.9% SDS, 50% glycerol, 0.05% bromophenol blue). […] Gels were stained with ethidium bromide (0.5 μg/ml) for 30 minutes and destained in water for 20 minutes. All gels were analyzed using the BIO-RAD ChemiDocTm XRS+ with Image Lab 3.0 software. The 50% inhibition concentration (IC50) was determined as being the compound concentration at which the supercoiled band was reduced by 50% from the DMSO drug free control (Microsoft Excel 2010 IDBS XLfit, GraftPad Prism 6).

[3] = test system: P. aeruginosa NB52023 (efflux deficient K1542, ΔmexX ΔmexB); assay: microbe, parasite or virus in culture; assay type: cell-based; conditions: Pseudomonas aeruginosa, 20 h, read-out: Antibacterial activity (MIC) NB52023
[4] = molecular target: E. coli DNA topoisomerase IV (Topo IV, ParC-E) (Escherichia coli, UniProt P0AFI2); assay: Decatenation assay of E. coli Topo IV; assay type: biochemical
E. coli DNA topoisomerase IV (Topo IV, ParC-E), sequence (P0AFI2 whole entry): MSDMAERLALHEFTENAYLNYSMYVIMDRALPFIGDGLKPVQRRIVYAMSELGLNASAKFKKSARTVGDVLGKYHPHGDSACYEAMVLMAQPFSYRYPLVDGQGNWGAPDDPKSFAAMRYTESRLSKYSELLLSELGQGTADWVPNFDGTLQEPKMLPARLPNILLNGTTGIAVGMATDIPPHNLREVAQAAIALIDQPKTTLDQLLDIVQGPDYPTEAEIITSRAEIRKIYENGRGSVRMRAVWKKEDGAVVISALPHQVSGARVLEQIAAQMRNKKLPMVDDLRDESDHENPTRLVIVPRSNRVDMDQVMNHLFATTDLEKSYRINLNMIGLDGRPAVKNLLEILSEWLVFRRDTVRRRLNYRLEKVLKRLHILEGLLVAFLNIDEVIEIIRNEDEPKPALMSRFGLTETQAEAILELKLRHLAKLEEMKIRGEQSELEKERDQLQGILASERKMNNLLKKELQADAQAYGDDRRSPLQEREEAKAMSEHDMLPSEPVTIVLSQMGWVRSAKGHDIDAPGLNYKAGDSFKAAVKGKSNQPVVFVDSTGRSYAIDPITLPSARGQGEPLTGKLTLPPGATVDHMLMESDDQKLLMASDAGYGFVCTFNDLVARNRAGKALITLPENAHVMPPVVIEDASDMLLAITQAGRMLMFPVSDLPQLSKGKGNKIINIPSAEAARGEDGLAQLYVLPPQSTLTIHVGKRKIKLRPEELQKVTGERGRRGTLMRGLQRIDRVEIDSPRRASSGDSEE
E. coli DNA topoisomerase IV (Topo IV, ParC-E), sequence (P20083 whole entry, further chain): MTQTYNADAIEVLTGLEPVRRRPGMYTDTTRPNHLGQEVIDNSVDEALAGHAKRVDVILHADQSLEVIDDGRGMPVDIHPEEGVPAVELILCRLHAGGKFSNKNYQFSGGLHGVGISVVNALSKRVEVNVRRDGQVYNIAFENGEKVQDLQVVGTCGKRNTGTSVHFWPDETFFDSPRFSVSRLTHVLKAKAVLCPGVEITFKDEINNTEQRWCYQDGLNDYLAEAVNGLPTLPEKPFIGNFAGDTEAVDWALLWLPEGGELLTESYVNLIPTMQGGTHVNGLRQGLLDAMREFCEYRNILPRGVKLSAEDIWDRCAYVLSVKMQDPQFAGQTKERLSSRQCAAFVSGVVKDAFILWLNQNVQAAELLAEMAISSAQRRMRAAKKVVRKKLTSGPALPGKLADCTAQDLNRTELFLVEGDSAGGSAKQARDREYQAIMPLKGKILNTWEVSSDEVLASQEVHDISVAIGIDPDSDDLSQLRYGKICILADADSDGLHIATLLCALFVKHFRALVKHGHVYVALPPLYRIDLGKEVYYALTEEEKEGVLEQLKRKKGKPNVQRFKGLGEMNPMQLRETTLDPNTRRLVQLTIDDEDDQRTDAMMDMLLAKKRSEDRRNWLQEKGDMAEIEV
Description: Method 2: Decatenation Assay of E. Coli Topo IV
Enzymatic activity of the E. coli DNA topoisomerase IV (Topo IV) reconstituted from its purified subunits was monitored by the decatenation of kinetoplast DNA into minicircles (kDNA, TopoGEN, TG2013-3). To form the functional Topo IV C2E2 heterotetrameric enzyme, equal molar concentrations of the ParC and ParE subunits were combined at high protein concentration (500 nM) and incubated on ice for 1 hour prior to assay start in reaction buffer without ATP or the kDNA. […] The reaction was carried out at 37° C. for 2 hours and terminated by the addition of 2.5 μl of 10× stop solution (0.9% SDS, 50% glycerol, 0.05% bromophenol blue). […] Gels were stained with ethidium bromide (0.5 μg/ml) for 30 minutes and distained in water for 20 minutes. All gels were analyzed using the BIO-RAD ChemiDoc™ XRS^+ with Image Lab 3.0 software. The 50% inhibitor concentration (IC50) was determined as being the compound concentration at which the presence of the kDNA minicircles in the gel was reduced by 50% from the DMSO drug free control (Microsoft Excel 2010 IDBS XLfit, Graph Pad Prism 6).

[5] = test system: E. coli NB27177 (efflux deficient CGSC 11430, ΔtolC732::kan); assay: microbe, parasite or virus in culture; assay type: cell-based; conditions: Escherichia coli, 20 h, read-out: Antibacterial activity (MIC) NB27177
[6] = test system: P. aeruginosa NB52023-CDK0006 (gyrA T83I, parC S87L); assay: microbe, parasite or virus in culture; assay type: cell-based; conditions: Pseudomonas aeruginosa, 20 h, read-out: Antibacterial activity (MIC) NB52023-CDK0006
[7] = test system: S. aureus ATCC 29213 (NB01001); assay: MIC, broth microdilution (CLSI); assay type: cell-based; conditions: Staphylococcus aureus, ATCC29213; S. aureus ATCC 29213; 35° C., 20 hours; read-out: Antibacterial activity (MIC) NB01001
[8] = test system: E. coli ATCC 25922 (NB27001); assay: MIC, broth microdilution (CLSI); assay type: cell-based; conditions: Escherichia coli, ATCC25922; E. coli ATCC 25922; 35° C., 20 hours; read-out: Antibacterial activity (MIC) NB27001
[9] = test system: P. aeruginosa NB52019 (wild-type PAO1); assay: MIC, broth microdilution (CLSI); assay type: cell-based; conditions: Pseudomonas aeruginosa, read-out: Antibacterial activity (MIC) NB52019
[10] = supercoiling activity of E. coli gyrase (GyrA-B), read-out: GyrA-B IC50 (Enzyme)
[11] = P. aeruginosa wild-type PAO1, 35° C., 20 hours

Compound | MIC [1] | IC50 [2, 10] | MIC [3] | IC50 [4] | MIC [5] | MIC [6] | MIC [7] | MIC [8] | IC50 [2] | MIC [9, 11] | MIC ([9]; PAO1, 20 h) | IC50 ([4]; decatenation activity of E. coli topoIV (ParC-E), read-out: ParC-E IC50 (Enzyme))
Cc1c(N2CC[C@@H]([C@H](C)N)C2)c(F)cc2cc(C(=O)O)c(=O)n(C3CC3)c12.Cl [Example 1.1, 7-((R)-3-((S)-1-aminoethyl)pyrrolidin-1-yl)-1-cyclopropyl-6-fluoro-8-methyl-2-oxo-1,2-dihydroquinoline-3-carboxylic acid hydrochloride salt] | 2 µg/mL | 0.68 µM |  |  |  |  |  |  |  |  |  | 
Cc1c(N2CC[C@@H]([C@H](C)N)C2)c(F)cc2cc(N)c(=O)n(C3CC3)c12 [Example 8, 3-amino-7-((R)-3-((S)-1-aminoethyl)pyrrolidin-1-yl)-1-cyclopropyl-6-fluoro-8-methylquinolin-2(1H)-one hydrochloride salt] |  | 1.68 µM |  |  |  |  |  |  |  |  |  | 
Cc1c(N2CC[C@@H]([C@H](C)N)C2)c(F)cc2ccc(=O)n(C3CC3)c12.Cl [Example 9.1, 7-((R)-3-((S)-1-aminoethyl)pyrrolidin-1-yl)-1-cyclopropyl-6-fluoro-8-methylquinolin-2(1H)-one hydrochloride salt] | 0.06 µg/mL |  | 4 µg/mL | 9.91 µM | < 0.03 µg/mL | 8 µg/mL | 0.06 µg/mL | 1 µg/mL | 1.3 µM | 16 µg/mL |  | 
Cc1c(N2CCC(C3(N)CC3)C2)c(F)cc2ccc(=O)n(C3CC3)c12 (stereo not shown) [Example 9.2, 7-(3-(1-Aminocyclopropyl)pyrrolidin-1-yl)-1-cyclopropyl-6-fluoro-8-methylquinolin-2(1H)-one] | 0.125 µg/mL (≈ 0.366 µM) | 1.19 µM | 16 µg/mL (≈ 46.9 µM) |  | 0.06 µg/mL (≈ 0.176 µM) | 32 µg/mL (≈ 93.7 µM) | 0.125 µg/mL (≈ 0.366 µM) | 4 µg/mL (≈ 11.7 µM) |  |  | > 32 µg/mL | 
Cc1c(N2CCNCC2)c(F)cc2ccc(=O)n(C3CC3)c12 [Example 9.3, 1-Cyclopropyl-6-fluoro-8-methyl-7-(piperazin-1-yl)quinolin-2(1H)-one] | 16 µg/mL (≈ 53.1 µM) |  | 16 µg/mL (≈ 53.1 µM) | > 100 µM | 0.25 µg/mL (≈ 0.83 µM) | 16 µg/mL (≈ 53.1 µM) | 16 µg/mL (≈ 53.1 µM) | 4 µg/mL (≈ 13.3 µM) | 11.9 µM | 32 µg/mL (≈ 106 µM) |  | 
Cc1c(-c2ccc(N)nc2)c(F)cc2ccc(=O)n(C3CC3)c12 [Example 10, 7-(6-Aminopyridin-3-yl)-1-cyclopropyl-6-fluoro-8-methylquinolin-2(1H)-one] | 0.25 µg/mL (≈ 0.808 µM) | 1.2 µM | 4 µg/mL (≈ 12.9 µM) |  | < 0.03 µg/mL | 8 µg/mL (≈ 25.9 µM) | 0.25 µg/mL (≈ 0.808 µM) | 4 µg/mL (≈ 12.9 µM) |  |  | > 32 µg/mL | 1.93 µM
Cc1c(-c2ccc(N)nc2)c(F)cc2cc(O)c(=O)n(C3CC3)c12 [Example 11.2, 7-(6-aminopyridin-3-yl)-1-cyclopropyl-6-fluoro-3-hydroxy-8-methylquinolin-2(1H)-one] | 2 µg/mL (≈ 6.15 µM) | 8.07 µM | 16 µg/mL (≈ 49.2 µM) |  | 0.125 µg/mL (≈ 0.384 µM) | > 32 µg/mL | 1 µg/mL (≈ 3.07 µM) | 8 µg/mL (≈ 24.6 µM) |  |  | > 32 µg/mL | 
COc1c(N2CC[C@@H]([C@H](C)N)C2)c(F)cc2cc(C(=O)O)c(=O)n(C3CC3)c12 [Example 12, 7-((R)-3-((S)-1-aminoethyl)pyrrolidin-1-yl)-1-cyclopropyl-6-fluoro-8-methoxy-2-oxo-1,2-dihydroquinoline-3-carboxylic acid hydrochloride] |  | 4.64 µM |  |  |  |  |  |  |  |  |  | 
Cc1c(N2CC[C@@H]([C@H](C)N)C2)c(F)cc2c(C(=O)O)cc(=O)n(C3CC3)c12 [Example 33, 7-((R)-3-((S)-1-aminoethyl)pyrrolidin-1-yl)-1-cyclopropyl-6-fluoro-8-methyl-2-oxo-1,2-dihydroquinoline-4-carboxylic acid] | > 32 µg/mL | 16.3 µM | > 32 µg/mL |  | 16 µg/mL (≈ 42.8 µM) | > 32 µg/mL | 32 µg/mL (≈ 85.7 µM) | 32 µg/mL (≈ 85.7 µM) |  |  | 32 µg/mL (≈ 85.7 µM) | 
Cc1c(N2CC[C@@H]([C@H](C)N)C2)c(F)cc2c(-c3nnn[nH]3)cc(=O)n(C3CC3)c12 [Example 39, 7-((R)-3-((S)-1-aminoethyl)pyrrolidin-1-yl)-1-cyclopropyl-6-fluoro-8-methyl-4-(1H-tetrazol-5-yl)quinolin-2(1H)-one] | > 32 µg/mL | 9.8 µM | > 32 µg/mL |  | 32 µg/mL (≈ 80.5 µM) | > 32 µg/mL | 32 µg/mL (≈ 80.5 µM) | 32 µg/mL (≈ 80.5 µM) |  |  | 32 µg/mL (≈ 80.5 µM) | 
Cc1c(N2CC[C@@H]([C@H](C)N)C2)c(F)cc2c(OCc3n[nH]c(=O)o3)cc(=O)n(C3CC3)c12 [Example 64, 5-(((7-((R)-3-((S)-1-aminoethyl)pyrrolidin-1-yl)-1-cyclopropyl-6-fluoro-8-methyl-2-oxo-1,2-dihydroquinolin-4-yl)oxy)methyl)-1,3,4-oxadiazol-2(3H)-one] | 4 µg/mL (≈ 9.02 µM) | 3.2 µM | > 32 µg/mL |  | 4 µg/mL (≈ 9.02 µM) | > 32 µg/mL | 8 µg/mL (≈ 18 µM) | 32 µg/mL (≈ 72.2 µM) |  |  | > 32 µg/mL | 
Cc1c(N2CC[C@@H]([C@H](C)N)C2)c(F)c(F)c2ccc(=O)n(C3CC3)c12.O=C(O)C(F)(F)F [Example 106, 7-((R)-3-((S)-1-aminoethyl)pyrrolidin-1-yl)-1-cyclopropyl-5,6-difluoro-8-methyl quinolin-2(1H)-one TFA] | 0.015 µg/mL |  | 0.5 µg/mL |  | < 0.03 µg/mL | 1 µg/mL | 0.015 µg/mL | 0.125 µg/mL |  | 2 µg/mL |  | 
Cl.NCc1c(N2CCC(F)(CN)C2)c(F)cc2ccc(=O)n(C3CC3)c12 (stereo not shown) [Example 111, 8-(aminomethyl)-7-(3-(aminomethyl)-3-fluoropyrrolidin-1-yl)-1-cyclopropyl-6-fluoroquinolin-2(1H)-one HCl salt] | 8 µg/mL |  | 8 µg/mL |  | 2 µg/mL | 16 µg/mL | 8 µg/mL | 8 µg/mL |  | > 32 µg/mL |  | 
Cl.N#Cc1c(N2CC[C@H](N)C2)c(F)cc2ccc(=O)n(C3CC3)c12 [Example 113, (S)-7-(3-aminopyrrolidin-1-yl)-1-cyclopropyl-6-fluoro-2-oxo-1,2-dihydroquinoline-8-carbonitrile HCl salt] | 16 µg/mL |  | 2 µg/mL |  | 0.125 µg/mL | 4 µg/mL | 8 µg/mL | 0.5 µg/mL |  | 16 µg/mL |  | 
N#Cc1c(N2CC[C@H](N)C2)c(F)cc2c(CN)cc(=O)n(C3CC3)c12 [Example 114, (S)-4-(aminomethyl)-7-(3-aminopyrrolidin-1-yl)-1-cyclopropyl-6-fluoro-2-oxo-1,2-dihydroquinoline-8-carbonitrile] | 32 µg/mL (≈ 93.7 µM) |  | 2 µg/mL (≈ 5.86 µM) |  | 0.5 µg/mL (≈ 1.46 µM) | 4 µg/mL (≈ 11.7 µM) | 16 µg/mL (≈ 46.9 µM) | 2 µg/mL (≈ 5.86 µM) |  |  | 16 µg/mL (≈ 46.9 µM) | 
Cc1c(N2CCC(F)(CN)C2)c(F)c(F)c2c(CN)cc(=O)n(C3CCC3)c12 (stereo not shown) [Example 115, 4-(aminomethyl)-7-(3-(aminomethyl)-3-fluoropyrrolidin-1-yl)-1-cyclobutyl-5,6-difluoro-8-methylquinolin-2(1H)-one TFA salt] | 4 µg/mL |  | 8 µg/mL |  | 0.5 µg/mL | 16 µg/mL | 2 µg/mL | 1 µg/mL |  |  | > 32 µg/mL | 
